Measurements reported in patent publication US20020142982A1, “Method for regulating angiogenesis” (priority 1999, published 2002).

Tests used:
Format in all cases: cell-based, human
[1] = tested on: HUVEC; assay: C2-Ceramide-induced apoptosis of HUVEC (DNA fragmentation); conditions: pretreatment 2 hours; PD98059 10 μM
Experimental: The ability of SPP to protect endothelial cells from apoptosis was investigated. In these experiments, HUVEC were treated with 1 μM C2-Ceramide for 12 hours and apoptosis was measured in the following manner: HUVEC were plated onto coverslips and allowed to grow for 2 days. Cells were washed three times with medium M199, and treated with 1 μM C2-Ceramide (Biomol) for 12 hours in the presence or absence of SPP. Subsequently, cells were fixed with methanol at −20° C. for 5 minutes, air dried, and stained with Hoechst 33258 dye (0.5 μg/mL for 5 minutes; Sigma Chemical Co., St. Louis, Mo.). The apoptotic nuclei were identified with the aid of a Zeiss Axiovert 100TB fluorescence microscope. For quantification, HUVEC were labeled with ^3Hmethyl-thymidine (5 μCi/mL, NEN DuPont) for 24 hours. Following three washes with medium M199, cells were treated with C2-Ceramide as above. 12 hours later, cells were extracted with lysis buffer (5 mM tris, pH 7.4, 2 mM EDTA, 0.5% TX-100) at 4° C. for 20 minutes. After centrifugation (15,000 g, 20 minutes), the radioactivity present in the supernatant and sediment was measured by liquid scintillation counting. The percentage of DNA fragmentation was determined as ((supernatant cpm)/(supernatant cpm+sediment cpm))×100%.
SPP+PTx and SPP+PD98059 (10 μM), respectively, for 2 hours prior to the addition of C2-Ceramide (1 μM) and SPP (10 to 500 nM). Data are mean±standard deviation of triplicate determinations from a representative experiment which was repeated two times. […] A similar effect was also seen when growth factor withdrawal, and 15-deoxy Δ^12,14 prostaglandin J2 were used as apoptotic stimuli (data not shown). […] Therefore SPP induced endothelial cell survival requires the Gi/ERK signaling pathway.

[2] = tested on: ERK-2; assay: ERK-2 immune complex kinase assay in HUVEC; conditions: PTx 200 ng/mL or PD98059 10 μM, 2 hours pretreatment
Experimental: As a second functional assay, ERK-2 kinase activity was measured in response to SPP treatment. For these experiments, endothelial cells were starved for 19 hours, and then stimulated with SPP for 10 minutes. Cells were then lysed, and ERK-2 kinase activity was measured by an immune complex kinase assay using myelin basic protein (MBP) as substrate. Some cells were pretreated with pertussis toxin (PTx) at 200 ng/mL, or PD98059 at 10 μM for 2 hours prior to stimulation.

[3] = tested on: HUVEC; assay: Adherens junction assembly in HUVEC, immunofluorescence of VE-cadherin and catenins; conditions: for VE-cadherin, α-, β- and γ-catenin localization at cell-cell junctions: 500 nM, 1 hour
Experimental: To investigate whether SPP regulates the formation of adherens junction in endothelial cells, HUVEC were plated at a density of 2×10^4 cells/em^2 for 2 days, starved in lipid-depleted medium and treated without (cont) or with SPP (500 nM for 1 hours). For these experiments, after treatment cells were washed with ice-cold PBS, fixed with 4% formaldehyde at room temperature or methanol at −20° C. for 15 minutes. In the case of formaldehyde fixation, cells were permeabilized with 0.2% TX-100. After washing with PBS, cells were stained with antibodies as follows: VE-cadherin ([…], Transduction Labs, San Diego, Calif.; 1 μg/mL, Santa Cruz Biotechnology, Inc., Santa Cruz, Calif.), α-catenin ([…], Transduction Labs), β-catenin (1.25 μg/mL, Transduction Labs; 0.4 μg/mL, Santa Cruz), γ-catenin ([…], Transduction Labs). The primary antibody staining was visualized with FITC-conjugated goat anti-rabbit or TRITC conjugated sheep anti-mouse (1:1000, Cappel, now owned by ICN, Costa Mesa, Calif.) for 30 minutes at room temperature, and imaged on a Zeiss Axiovert 100TV fluorescence microscope. […]

[4] = tested on: HUVEC; assay: HUVEC morphogenesis on MATRIGEL (in vitro angiogenesis, tubular length); conditions: for HUVEC morphogenesis on MATRIGEL (tubular length): 12-18 hours, SPM and C1P 1 μM
Experimental: FIG. 42 is microscope images showing morphogenesis of HUVEC cells plated on Matrigel. HUVEC cells were transduced with 50 MOI of indicated viruses; a,b=none, c=β-gal, d=wild-type EDG-1, e=T236AEDG-1, f=T236AEDG-1+wild-type Akt. Total viral load in c-f is normalized. In vitro angiogenesis assay on Matrigel was conducted in the presence (b to f) or not (a) of 100 nM S1P. The numbers are mean±s.e.m of total tubular length per microscopic field (n=2). Scale bar=170 μm.
To investigate SPP induction of angiogenesis, 200 μL aliquots of thawed MATRIGEL were polymerized in 24-well tissue culture plates. HUVEC were trypsinized, resuspended in plain M199 medium containing soybean trypsin inhibitor (10 mg/mL, Sigma Chemical Co., St. Louis, Mo.). Following centrifugation (250 g; 5 minutes), cells were resuspended in plain M199 supplemented with 2% CFBS at a density of 1.5×10^5 cells/mL. 200 μL of cell suspension were seeded on these gels in the presence or absence of SPP (Biomol), for 12-18 hours. Cells were rinsed two times with phosphate buffered saline (PBS), and then fixed with 4% formaldehyde. Results were recorded photographically using a Zeiss Axiovert 100TV microscope equipped with a 5× objective. Five random fields of each well were photographed, and total tubular length was quantified by image analysis (Kinsella, J. et al., Experimental Cell Research 199: 56-62 (1992); Gamble J., et al., J. Cell Biol. 121: 931-943 (1993)).
Scale bar represents 52 microns. These quantitative data are the mean±standard deviation of duplicate determinations from a representative experiment which was repeated at least three times. SPP concentrations (in μM) are indicated in parentheses. For SPP +PTx, HUVEC were pretreated with PTx (200 ng/mL) for 2 hours, trypsinized, plated onto MATRIGEL, then stimulated with 500 nM SPP in the presence of PTx (20 ng/mL) for 16-18 hours. For SPP+C3, HUVEC were pretreated with C3 exoenzyme (10 μg/mL) for 48 hours, trypsinized, plated onto MATRIGEL, stimulated with 500 nM SPP together with the same concentration of C3 exotoxin. SPM, sphingomyelin (1 μM). For C1P, C8-ceramide-1-phosphate (1 μM). The maximal effects achieved by 1 μM SPP was indistinguishable from the positive control medium which contained FBS.
In these experiments, HUVEC were plated onto MATRIGEL in the presence of the same amount of corresponding antibodies without or with 500 nM SPP. 16 hours later, total length of HUVEC networks formed on MATRIGEL was quantified.

[5] = tested on: HUVEC; assay: SPP-induced intracellular calcium in HUVEC (Indo-1 fluorescence); conditions: PTx 500 ng/mL pretreatment 16 hours
Experimental: Functional assays were used to test for the presence of Gi-coupled and Gq-coupled SPP receptors in HUVEC. First, intracellular calcium levels were measured in response to SPP. For these experiments, cells were grown on 100-mm tissue culture dishes and loaded with the fluorescent calcium-sensitive dye, Indo-1 acetoxymethyl ester (Indo-1/AM, 5 μg/mL; Molecular Probes, Inc., Eugene, Oreg.), for 30 min at 37° C. Cells were then washed with medium M199, briefly trypsinized (0.05% porcine trypsin/0.02% EDTA in HBSS (JRH Biosciences, Lenexa, Kans.), and the trypsin activity was immediately neutralized with soybean trypsin inhibitor (5 μg/mL, Sigma Chemical Co., St. Louis, Mo.). Following centrifugation (250 g×5 min), cells were resuspended in M199 medium to a density of 2.7×10^5 cells/mL. Cells were then stimulated with different doses of SPP. Some cells were pretreated with the Gi inhibitor pertussis toxin (PTx, 500 ng-/mL) for 16 hours. Calcium ion concentration was then quantified by measuring changes in indo-1 fluorescence in 2 mL of cell suspension by a Hitachi F-2000 fluorescence Spectrophotometer with constant stirring. Fluorescence emission was monitored at 400 and 475 nm with excitation at 352 nm. [Ca^+2]1 was calculated as described in Volpi and Berlin, J. Cell Biol., Vol. 107, 2533-39 (1988).

| Compound | inhibition of the cytoprotective effect of SPP [1] | inhibition of SPP-induced ERK activity [2] | VE-cadherin, α-, β- and γ-catenin localization at cell-cell junctions [3] | HUVEC morphogenesis on MATRIGEL (tubular length) [4] | further results |
| --- | --- | --- | --- | --- | --- |
| COc1cccc(-c2cc(=O)c3ccccc3o2)c1N [PD98059] | completely inhibited | inhibited completely | – | – | – |
| CCCCCCCCCCCCC/C=C/[C@@H](O)[C@H](COP(=O)(O)O)NC(=O)CCCCCCC [ceramide-1-phosphate, C8-ceramide-1-phosphate] | – | – | had no effect | inactive | – |
| CCCCCCCCCCCCC/C=C/[C@@H](O)[C@@H](N)CO [sphingosine] | – | – | had no effect | – | – |
| ceramide | – | – | had no effect | – | – |
| pertussis toxin | completely inhibited | inhibited completely | – | – | inhibition of SPP-induced β-catenin translocation ([3]; HUVEC, SPP treatment): did not inhibit; inhibition of SPP-induced morphogenesis ([4]; 500 nM SPP, MATRIGEL): potently inhibited; inhibition of SPP-induced calcium response [5]: approximately 90% |
| sphingomyelin | – | – | had no effect | inactive | – |
